Measured values reported in the supplement of paper PMC4862054.

How the values were obtained:
Settings in all cases: incubation time: 72 h
HDQ-P1 [1] = assay: normalised response (% of control), CellTiter-Glo; higher = more viable cells (100 = DMSO, 0 = benzethonium chloride kill control)
Summary of the method: (§1)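 Compound was dispensed into 384-well plates at 5 concentrations in 10-fold steps spanning a 10,000-fold range specific to that compound. Breast cancer cell lines were added as 20 µl suspension and left for 72 h before CellTox Green fluorescence (485/520 nm) and then CellTiter-Glo luminescence, read after 10 min at room temperature. Each reported value is the normalised signal at one concentration, with 0.1 % DMSO set at 100 and a positive kill control at 0 on each plate.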

CAL-51 [2] = assay: as above
Summary of the method: as §1

Hs578T [3] = assay: as above
Summary of the method: as §1

SK-BR-3 [4] = assay: as above
Summary of the method: as §1

HCC1143 [5] = assay: as above
Summary of the method: as §1

DU-4475 [6] = assay: as above
Summary of the method: as §1

CAL-85-1 [7] = assay: as above
Summary of the method: as §1

CAL-148 [8] = assay: as above
Summary of the method: as §1

HCC1599 [9] = assay: as above
Summary of the method: as §1

BT-549 [10] = assay: as above
Summary of the method: as §1

HCC1937 [11] = assay: as above
Summary of the method: as §1

MDA-MB-436 [12] = assay: as above
Summary of the method: as §1

MDA-MB-231 [13] = assay: as above
Summary of the method: as §1

BT-474 [14] = assay: as above
Summary of the method: as §1

MFM-223 [15] = assay: as above
Summary of the method: as §1

MCF-10A [16] = assay: as above
Summary of the method: as §1

MDA-MB-453 [17] = assay: as above
Summary of the method: as §1

MDA-MB-468 [18] = assay: as above
Summary of the method: as §1

CAL-120 [19] = assay: as above
Summary of the method: as §1

HDQ-P1 [20] = assay: normalised response (% of control), CellTox Green; higher = less cell death (100 = DMSO, 0 = benzethonium chloride kill control)
Summary of the method: as §1

CAL-51 [21] = assay: as above
Summary of the method: as §1

Hs578T [22] = assay: as above
Summary of the method: as §1

HCC1143 [23] = assay: as above
Summary of the method: as §1

DU-4475 [24] = assay: as above
Summary of the method: as §1

CAL-85-1 [25] = assay: as above
Summary of the method: as §1

CAL-148 [26] = assay: as above
Summary of the method: as §1

HCC1599 [27] = assay: as above
Summary of the method: as §1

BT-549 [28] = assay: as above
Summary of the method: as §1

HCC1937 [29] = assay: as above
Summary of the method: as §1

MDA-MB-436 [30] = assay: as above
Summary of the method: as §1

MDA-MB-231 [31] = assay: as above
Summary of the method: as §1

BT-474 [32] = assay: as above
Summary of the method: as §1

MFM-223 [33] = assay: as above
Summary of the method: as §1

MCF-10A [34] = assay: as above
Summary of the method: as §1

MDA-MB-453 [35] = assay: as above
Summary of the method: as §1

MDA-MB-468 [36] = assay: as above
Summary of the method: as §1

CAL-120 [37] = assay: as above
Summary of the method: as §1

HDQ-P1 [38] = assay: normalised response (% of control), CellTiter-Glo; higher = more viable cells (100 = DMSO, 0 = benzethonium chloride kill control); remark: listed apart in the source
Protocol: (§2)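 DSRT, 72 h incubation, CellTox Green / CellTiter-Glo readout. Signal is normalised to DMSO and benzethonium chloride controls. Value is the normalised response at dose 3.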

CAL-51 [39] = assay: as above; remark: listed apart in the source
Protocol: as §2

Hs578T [40] = assay: as above; remark: listed apart in the source
Protocol: as §2

SK-BR-3 [41] = assay: as above; remark: listed apart in the source
Protocol: as §2

HCC1143 [42] = assay: as above; remark: listed apart in the source
Protocol: as §2

DU-4475 [43] = assay: as above; remark: listed apart in the source
Protocol: as §2

CAL-85-1 [44] = assay: as above; remark: listed apart in the source
Protocol: as §2

CAL-148 [45] = assay: as above; remark: listed apart in the source
Protocol: as §2

HCC1599 [46] = assay: as above; remark: listed apart in the source
Protocol: as §2

BT-549 [47] = assay: as above; remark: listed apart in the source
Protocol: as §2

HCC1937 [48] = assay: as above; remark: listed apart in the source
Protocol: as §2

MDA-MB-436 [49] = assay: as above; remark: listed apart in the source
Protocol: as §2

MDA-MB-231 [50] = assay: as above; remark: listed apart in the source
Protocol: as §2

BT-474 [51] = assay: as above; remark: listed apart in the source
Protocol: as §2

MFM-223 [52] = assay: as above; remark: listed apart in the source
Protocol: as §2

MCF-10A [53] = assay: as above; remark: listed apart in the source
Protocol: as §2

MDA-MB-453 [54] = assay: as above; remark: listed apart in the source
Protocol: as §2

MDA-MB-468 [55] = assay: as above; remark: listed apart in the source
Protocol: as §2

CAL-120 [56] = assay: as above; remark: listed apart in the source
Protocol: as §2

SMILES	normalised response (HDQ-P1 [1]) [%]	normalised response (CAL-51 [2]) [%]	normalised response (Hs578T [3]) [%]	normalised response (SK-BR-3 [4]) [%]	normalised response (HCC1143 [5]) [%]	normalised response (CAL-51 [21]) [%]	normalised response (HCC1143 [23]) [%]	normalised response (DU-4475 [24]) [%]	normalised response (CAL-85-1 [25]) [%]	normalised response (CAL-148 [26]) [%]	normalised response (HCC1599 [27]) [%]	normalised response (BT-549 [28]) [%]	normalised response (HCC1937 [29]) [%]	normalised response (MDA-MB-436 [30]) [%]	normalised response (MDA-MB-231 [31]) [%]	normalised response (BT-474 [32]) [%]	normalised response (MCF-10A [34]) [%]	normalised response (MDA-MB-453 [35]) [%]	normalised response (MDA-MB-468 [36]) [%]	normalised response (CAL-120 [37]) [%]	further results
CN(C)C/C=C/C(=O)Nc1cc2c(Nc3ccc(F)c(Cl)c3)ncnc2cc1O[C@H]1CCOC1 [Afatinib] (100 nM)	64	118	108	27.5	100	107	111	101	55.7	102	112	116	135	87	113	81.3	85.5	102	110	101	normalised response (DU-4475 [6]): 98.1%; normalised response (CAL-85-1 [7]): 65.9%; normalised response (CAL-148 [8]): 75.1%; normalised response (HCC1599 [9]): 94.1%; normalised response (BT-549 [10]): 98.5%; normalised response (HCC1937 [11]): 89.8%; normalised response (MDA-MB-436 [12]): 98%; normalised response (MDA-MB-231 [13]): 103%; normalised response (BT-474 [14]): 90.6%; normalised response (MFM-223 [15]): 106%; normalised response (MCF-10A [16]): 32.4%; normalised response (MDA-MB-453 [17]): 77.3%; normalised response (MDA-MB-468 [18]): 87.2%; normalised response (CAL-120 [19]): 92.9%; normalised response (HDQ-P1 [20]): 90.9%; normalised response (Hs578T [22]): 100%; normalised response (MFM-223 [33]): 101%
COc1cc(Nc2ncc3c(n2)-c2ccc(Cl)cc2C(c2c(F)cccc2OC)=NC3)ccc1C(=O)O [Alisertib] (1000 nM)	84.3	56.5	84.4	76	71.3	17.4	85.8	92.2	93.3	53.8	96.6	76.9	122	73.5	69.1	96	108	110	8.1	96.9	normalised response (DU-4475 [6]): 67.6%; normalised response (CAL-85-1 [7]): 90.5%; normalised response (CAL-148 [8]): 62.6%; normalised response (HCC1599 [9]): 82.6%; normalised response (BT-549 [10]): 49.2%; normalised response (HCC1937 [11]): 86.5%; normalised response (MDA-MB-436 [12]): 62%; normalised response (MDA-MB-231 [13]): 78%; normalised response (BT-474 [14]): 70.9%; normalised response (MFM-223 [15]): 56.4%; normalised response (MCF-10A [16]): 76.3%; normalised response (MDA-MB-453 [17]): 140%; normalised response (MDA-MB-468 [18]): 27.2%; normalised response (CAL-120 [19]): 79.5%; normalised response (HDQ-P1 [20]): 78.2%; normalised response (Hs578T [22]): 96.3%; normalised response (MFM-223 [33]): 89.1%
CC(=O)O[C@]1(C(C)=O)CC[C@H]2[C@@H]3C=C(C)C4=CC(=O)CC[C@]4(C)[C@H]3CC[C@@]21C [Megestrol acetate] (1000 nM)	104	124	105	93.8	103	115	116	99.1	104	104	96.8	108	58.1	57.4	110	97.6	103	105	141	101	normalised response (DU-4475 [6]): 102%; normalised response (CAL-85-1 [7]): 100%; normalised response (CAL-148 [8]): 92.4%; normalised response (HCC1599 [9]): 111%; normalised response (BT-549 [10]): 109%; normalised response (HCC1937 [11]): 110%; normalised response (MDA-MB-436 [12]): 101%; normalised response (MDA-MB-231 [13]): 118%; normalised response (BT-474 [14]): 111%; normalised response (MFM-223 [15]): 96.6%; normalised response (MCF-10A [16]): 121%; normalised response (MDA-MB-453 [17]): 95.8%; normalised response (MDA-MB-468 [18]): 95.4%; normalised response (CAL-120 [19]): 98.2%; normalised response (HDQ-P1 [20]): 106%; normalised response (Hs578T [22]): 98.8%; normalised response (MFM-223 [33]): 101%
CCN1CCN(c2ccc(Nc3cc(N(C)C(=O)Nc4c(Cl)c(OC)cc(OC)c4Cl)ncn3)cc2)CC1 [NVP-BGJ398] (100 nM)	101	112	95.8	97.5	97.7	111	111	99.3	108	104	95.3	99.1	112	99.7	104	98.1	101	103	89.7	90.8	normalised response (DU-4475 [6]): 101%; normalised response (CAL-85-1 [7]): 97.3%; normalised response (CAL-148 [8]): 92.6%; normalised response (HCC1599 [9]): 102%; normalised response (BT-549 [10]): 94.3%; normalised response (HCC1937 [11]): 98.8%; normalised response (MDA-MB-436 [12]): 93.4%; normalised response (MDA-MB-231 [13]): 96.1%; normalised response (BT-474 [14]): 94.5%; normalised response (MFM-223 [15]): 63.3%; normalised response (MCF-10A [16]): 103%; normalised response (MDA-MB-453 [17]): 104%; normalised response (MDA-MB-468 [18]): 97.1%; normalised response (CAL-120 [19]): 84.7%; normalised response (HDQ-P1 [20]): 73%; normalised response (Hs578T [22]): 91%; normalised response (MFM-223 [33]): 95.7%
O=C(c1ccc(C(=O)N2CCC(N3CCCC3)CC2)c(Nc2ccccc2)c1)N1CCC(N2CCCC2)CC1 [UNC1215] (300 nM)						77.2	93.9	101	98.7	104	93.7	94.4	85.9	65.3	90.9	101	86.4	100	129	101	normalised response (HDQ-P1 [38]): 97.6%; normalised response (CAL-51 [39]): 62.6%; normalised response (Hs578T [40]): 98%; normalised response (SK-BR-3 [41]): 94%; normalised response (HCC1143 [42]): 95%; normalised response (DU-4475 [43]): 99.5%; normalised response (CAL-85-1 [44]): 99.5%; normalised response (CAL-148 [45]): 93.6%; normalised response (HCC1599 [46]): 93.2%; normalised response (BT-549 [47]): 96.7%; normalised response (HCC1937 [48]): 92.7%; normalised response (MDA-MB-436 [49]): 99.7%; normalised response (MDA-MB-231 [50]): 99.1%; normalised response (BT-474 [51]): 98.3%; normalised response (MFM-223 [52]): 97.7%; normalised response (MCF-10A [53]): 94.5%; normalised response (MDA-MB-453 [54]): 104%; normalised response (MDA-MB-468 [55]): 90%; normalised response (CAL-120 [56]): 96.7%
